Data taken from US20250326771A1, “PIPERAZINE DERIVATIVES USEFUL IN HIV THERAPY” (VIIV HEALTHCARE COMPANY, priority 2022, published 2025).
pIC50: −log10 of the molar value.

Columns and labels:
cIAP1-BIR3 = cIAP1-BIR3 (Homo sapiens (Human), UniProt Q13490); experiment: BIR binding assay (FRET competition), cIAP1 BIR3; settings: for cIAP1 BIR3 vs BIR2 separation window: fold separation (FS) for cIAP1
In short: (§1)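 His-tagged domains (50 nM cIAP1-BIR3, 325 nM cIAP2-BIR2, 325 nM cIAP1-BIR2, 100 nM XIAP-BIR3) compete with compounds for a 200 nM AlexaFluor647-labelled SMAC/DIABLO peptide in HEPES buffer, pH 7.4, for 60 min. Then 2 nM Eu-W1024 is added for 30 min. The 615/665 nm ratio is fit by four-parameter fit to give IC50.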

cIAP1-BIR2 = cIAP1-BIR2 (Homo sapiens (Human), UniProt Q13490); experiment: BIR binding assay (FRET competition), cIAP1 BIR2
Description: (§2) The BIR domain binding assays are FRET based competition assays that utilize His-tagged versions of each of the BIR2 and BIR3 domains from cIAP1, cIAP2, and XIAP (each domain assayed separately) each at a custom optimal concentration and a probe, 200 nM SMAC/DIABLO peptide […] labelled with AlexaFluor647 (part #crb 1110326h, Discovery Peptides). The assay is conducted in 50 mM HEPES, […], 1 mM CHAPS, 5% Glycerol, 1 mM DTT, in dI water with a final pH of 7.4 and final volume of 20 uL. Final protein domain concentrations are: 50 nM cIAP1-BIR3 (Part #APT-11-370 Reaction Biology), 100 nM XIAP-BIR3 (Part #APT-11-351 Reaction Biology), 200 nM XIAP-BIR2 (Part #APT-11-470 Reaction Biology), 325 nM cIAP2-BIR2 (Part #APT-11-489 Reaction Biology), 50 nM cIAP2-BIR3 (Part #APT-11-372 Reaction Biology), 325 nM cIAP1-BIR2 (Part #APT-11-487 Reaction Biology). Compounds were plated using a HP Tecan D300 printer in a final total volume of 202 nl and DMSO concentration normalized across the 15-point, 3-fold dilution series. Peptide and probe were prepared at 2× relative to the concentrations above in binding buffer, 10 uL added to the prepared compound plates, and incubated for 60 minutes. LANCE Eu-W1024 (part #AD0401 Perkin Elmer #, vendor) was prepared at 2× concentration in binding buffer for final concentration of 2 nM, 10 uL added to each well, and plates incubated for 30 minutes. Plates were read on an ENVISION multifunction plate reader with […] laser excitation to obtain the 615 nm/665 nm emission ratio as indicative of probe:protein proximity. Data was analyzed using GraphPad PRISM and curves fit using log(inhibitor) vs. response—Variable slope (four […] method to obtain IC50 and pIC50 values.

XIAP-BIR3 = XIAP-BIR3 (Homo sapiens (Human), UniProt P98170); experiment: BIR binding assay (FRET competition), XIAP BIR3
In short: as §1

cIAP2-BIR2 = cIAP2-BIR2 (Homo sapiens (Human), UniProt Q13489); experiment: BIR binding assay (FRET competition), cIAP2 BIR2
Description: as §2

cIAP2-BIR3 = cIAP2-BIR3 (Homo sapiens (Human), UniProt Q13489); experiment: BIR binding assay (FRET competition), cIAP2 BIR3; settings: for cIAP2 BIR3 vs BIR2 separation window: fold separation (FS) for cIAP2
[1] = system: Jurkat HIV-luciferase clones; experiment: Jurkat latency reversal assay; assay type: cell-based; settings: Homo sapiens, 48 h; Jurkat latency reversal assay potency; read-out: Jurkat pEC50 (converted)
In short: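 Compounds are titrated 3-fold over 14 points from 10 μM in duplicate at 0.5% DMSO. Clones C16, 115 and N6, grown with 500 nM EFV, are co-incubated for 48 h at 37° C. Virally driven luciferase is read by luminescence, and EC50 and maximal percent activation versus vehicle come from a four-parameter model.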

Chain of cIAP2-BIR3 (Q13489 238-349): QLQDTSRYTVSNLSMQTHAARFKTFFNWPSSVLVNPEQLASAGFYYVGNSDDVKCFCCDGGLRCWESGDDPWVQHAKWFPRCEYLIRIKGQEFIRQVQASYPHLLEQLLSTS
Chain of cIAP1-BIR2 (Q13490 173-257): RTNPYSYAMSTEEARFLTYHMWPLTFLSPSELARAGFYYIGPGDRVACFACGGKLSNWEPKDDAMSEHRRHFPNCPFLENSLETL
Chain of XIAP-BIR3 (P98170 241-356): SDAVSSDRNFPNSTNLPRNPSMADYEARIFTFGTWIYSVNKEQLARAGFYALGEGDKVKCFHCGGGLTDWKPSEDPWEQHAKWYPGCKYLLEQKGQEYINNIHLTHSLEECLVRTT
Chain of cIAP1-BIR3 (Q13490 253-363): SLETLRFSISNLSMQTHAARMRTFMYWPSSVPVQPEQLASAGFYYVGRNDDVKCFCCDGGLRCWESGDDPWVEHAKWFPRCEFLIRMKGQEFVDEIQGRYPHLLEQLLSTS
Chain of cIAP2-BIR2 (Q13489 158-242): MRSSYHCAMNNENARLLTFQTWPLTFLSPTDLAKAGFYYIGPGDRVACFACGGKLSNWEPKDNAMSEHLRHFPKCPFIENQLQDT

C[C@@H]1CN(CC(=O)N2CC(C)(C)c3[nH]c(=O)c(Cc4c(Cl)cc(Cl)cc4Cl)cc32)[C@@H](CN2CCO[C@H](C(=O)NCc3ccc(CNC(=O)[C@@H]4CN(C[C@H]5CN[C@H](C)CN5CC(=O)N5CC(C)(C)c6[nH]c(=O)c(Cc7c(Cl)cc(Cl)cc7Cl)cc65)CCO4)cc3)C2)CN1 [Compound 180, (2S,2′S)-N,N′-(1,4-phenylenebis(methylene)) bis(4-(((2R,5R)-1-(2-(3,3-dimethyl-5-oxo-6-(2,4,6-trichlorobenzyl)-2,3,4,5-tetrahydro-1H-pyrrolo[3,2-b]pyridin-1-yl)-2-oxoethyl)-5-methylpiperazin-2-yl)methyl)morpholine-2-carboxamide)]
pIC50 (cIAP1-BIR3): 6.30 to 7.50 | cIAP1 BIR3 vs BIR2 separation window (cIAP1-BIR3): ++ (1,000>FS>100) | pIC50 (cIAP1-BIR2): 4.29 to 5.00 | pIC50 (XIAP-BIR3): 6.30 to 7.50 | pIC50 (cIAP2-BIR2): 4.29 to 5.00 | pIC50 (cIAP2-BIR3): 6.30 to 7.50 | cIAP2 BIR3 vs BIR2 separation window (cIAP2-BIR3): ++ (1,000>FS>100) | EC50 [1]: 63.1 to 316 nM

C[C@@H]1CN(CC(=O)N2CC(C)(C)c3[nH]c(=O)c(Cc4ccc(F)cc4)cc32)[C@@H](CN2CCC[C@H](NC(=O)CCCCCCCCCCCCC(=O)N[C@H]3CCCN(C[C@H]4CN[C@H](C)CN4CC(=O)N4CC(C)(C)c5[nH]c(=O)c(Cc6ccc(F)cc6)cc54)C3)C2)CN1 [Example 40, N^1,N^14-bis((S)-1-(((2R,5R)-1-(2-(6-(4-fluorobenzyl)-3,3-dimethyl-5-oxo-2,3,4,5-tetrahydro-1H-pyrrolo[3,2-b]pyridin-1-yl)-2-oxoethyl)-5-methylpiperazin-2-yl)methyl)piperidin-3-yl)tetradecanediamide]
pIC50 (cIAP1-BIR3): 7.50 to 7.80 | cIAP1 BIR3 vs BIR2 separation window (cIAP1-BIR3): +++ (10,000>FS>1,000) | pIC50 (cIAP1-BIR2): 4.29 to 5.00 | pIC50 (XIAP-BIR3): 6.30 to 7.50 | pIC50 (cIAP2-BIR2): 4.29 to 5.00 | pIC50 (cIAP2-BIR3): 7.50 to 7.80 | cIAP2 BIR3 vs BIR2 separation window (cIAP2-BIR3): +++ (10,000>FS>1,000) | EC50 [1]: 63.1 to 316 nM

C[C@@H]1CN(CC(=O)N2CC(C)(C)c3[nH]c(=O)c(Cc4ccc(F)cc4)cc32)[C@@H](CN2CCO[C@H](C(=O)NCCCCCCCCNC(=O)[C@@H]3CN(C[C@H]4CN[C@H](C)CN4CC(=O)N4CC(C)(C)c5[nH]c(=O)c(Cc6ccc(F)cc6)cc54)CCO3)C2)CN1 [Example 119, (2S,2'S)-N,N′-(octane-1,8-diyl)bis(4-(((2R,5R)-1-(2-(6-(4-fluorobenzyl)-3,3-dimethyl-5-oxo-2,3,4,5-tetrahydro-1H-pyrrolo[3,2-b]pyridin-1-yl)-2-oxoethyl)-5-methylpiperazin-2-yl)methyl)morpholine-2-carboxamide)]
pIC50 (cIAP1-BIR3): 8.10 to 8.86 | cIAP1 BIR3 vs BIR2 separation window (cIAP1-BIR3): +++ (10,000>FS>1,000) | pIC50 (cIAP1-BIR2): 5.50 to 6.00 | pIC50 (XIAP-BIR3): 7.80 to 8.10 | pIC50 (cIAP2-BIR2): 6.00 to 7.65 | pIC50 (cIAP2-BIR3): 8.10 to 8.86 | cIAP2 BIR3 vs BIR2 separation window (cIAP2-BIR3): +++ (10,000>FS>1,000) | EC50 [1]: 12.6 to 63.1 nM

C[C@@H]1CN(CC(=O)N2CC(C)(C)c3[nH]c(=O)c(Cc4ccc(F)cc4)cc32)[C@@H](CN2CCO[C@H](COc3cc(F)cc(OC[C@@H]4CN(C[C@H]5CN[C@H](C)CN5CC(=O)N5CC(C)(C)c6[nH]c(=O)c(Cc7ccc(F)cc7)cc65)CCO4)c3)C2)CN1 [Example 73, 1,1′-(2,2′-((3R,3′R,6R,6′R)-(((2S,2'S)-(((5-fluoro-1,3-phenylene)bis(oxy))bis(methylene))bis(morpholine-2,4-diyl))bis(methylene))bis(3-methylpiperazine-6,1-diyl))bis(acetyl))bis(6-(4-fluorobenzyl)-3,3-dimethyl-1,2,3,4-tetrahydro-5H-pyrrolo[3,2-b]pyridin-5-one)]
pIC50 (cIAP1-BIR3): 7.80 to 8.10 | cIAP1 BIR3 vs BIR2 separation window (cIAP1-BIR3): +++ (10,000>FS>1,000) | pIC50 (cIAP1-BIR2): 5.00 to 5.50 | pIC50 (XIAP-BIR3): 7.50 to 7.80 | pIC50 (cIAP2-BIR2): 5.00 to 5.50 | pIC50 (cIAP2-BIR3): 8.10 to 8.86 | cIAP2 BIR3 vs BIR2 separation window (cIAP2-BIR3): +++ (10,000>FS>1,000) | EC50 [1]: 0.49 to 12.6 nM

C[C@@H]1CN(CC(=O)N2CC(C)(C)c3[nH]c(=O)c(Cc4ccc(Cl)cc4C#N)cc32)[C@@H](CN2CCO[C@H](COc3cccc(OC[C@@H]4CN(C[C@H]5CN[C@H](C)CN5CC(=O)N5CC(C)(C)c6[nH]c(=O)c(Cc7ccc(Cl)cc7C#N)cc65)CCO4)c3)C2)CN1 [Compound 189]
pIC50 (cIAP1-BIR3): 7.50 to 7.80 | cIAP1 BIR3 vs BIR2 separation window (cIAP1-BIR3): +++ (10,000>FS>1,000) | pIC50 (cIAP1-BIR2): 5.50 to 6.00 | pIC50 (XIAP-BIR3): 6.30 to 7.50 | pIC50 (cIAP2-BIR2): 5.00 to 5.50 | pIC50 (cIAP2-BIR3): 7.50 to 7.80 | cIAP2 BIR3 vs BIR2 separation window (cIAP2-BIR3): +++ (10,000>FS>1,000) | EC50 [1]: 0.49 to 12.6 nM

C[C@@H]1CN(CC(=O)N2CC(C)(C)c3[nH]c(=O)c(Cc4ccc(F)cc4)cc32)[C@@H](CN2CCO[C@H](COCCCCCOC[C@@H]3CN(C[C@H]4CN[C@H](C)CN4CC(=O)N4CC(C)(C)c5[nH]c(=O)c(Cc6ccc(F)cc6)cc54)CCO3)C2)CN1 [Example 82, 1,1′-(2,2′-((3R,3′R,6R,6′R)-(((2S,2'S)-((pentane-1,5-diylbis(oxy))bis(methylene))bis(morpholine-2,4-diyl))bis(methylene))bis(3-methylpiperazine-6,1-diyl))bis(acetyl))bis(6-(4-fluorobenzyl)-3,3-dimethyl-1,2,3,4-tetrahydro-5H-pyrrolo[3,2-b]pyridin-5-one)]
pIC50 (cIAP1-BIR3): 7.50 to 7.80 | cIAP1 BIR3 vs BIR2 separation window (cIAP1-BIR3): ++++ (FS>10,000) | pIC50 (cIAP1-BIR2): 4.29 to 5.00 | pIC50 (XIAP-BIR3): 6.30 to 7.50 | pIC50 (cIAP2-BIR2): 5.50 to 6.00 | pIC50 (cIAP2-BIR3): 7.50 to 7.80 | cIAP2 BIR3 vs BIR2 separation window (cIAP2-BIR3): +++ (10,000>FS>1,000) | EC50 [1]: 0.49 to 12.6 nM

C[C@@H]1CN(CC(=O)N2CC(C)(C)c3[nH]c(=O)c(Cc4ccc(F)cc4)cc32)[C@@H](CN2CCN(CCCCCCCCCCN3CCN(C[C@H]4CN[C@H](C)CN4CC(=O)N4CC(C)(C)c5[nH]c(=O)c(Cc6ccc(F)cc6)cc54)[C@H](C)C3)C[C@H]2C)CN1 [Example 25, 1,1′-(2,2′-((3R,3′R,6R,6′R)-(((2R,2′R)-decane-1,10-diylbis(2-methylpiperazine-4,1-diyl))bis(methylene))bis(3-methylpiperazine-6,1-diyl))bis(acetyl))bis(6-(4-fluorobenzyl)-3,3-dimethyl-1,2,3,4-tetrahydro-5H-pyrrolo[3,2-b]pyridin-5-one)]
pIC50 (cIAP1-BIR3): 7.80 to 8.10 | cIAP1 BIR3 vs BIR2 separation window (cIAP1-BIR3): ++ (1,000>FS>100) | pIC50 (cIAP1-BIR2): 6.00 to 7.65 | pIC50 (XIAP-BIR3): 7.80 to 8.10 | pIC50 (cIAP2-BIR2): 6.00 to 7.65 | pIC50 (cIAP2-BIR3): 8.10 to 8.86 | cIAP2 BIR3 vs BIR2 separation window (cIAP2-BIR3): +++ (10,000>FS>1,000) | EC50 [1]: 12.6 to 63.1 nM

C[C@@H]1CN(CC(=O)N2CC(C)(C)c3c2cc(Cc2ccc(F)cc2)c(=O)n3C)[C@@H](CN2CCO[C@H](COCC#CC#CCOC[C@@H]3CN(C[C@H]4CN[C@H](C)CN4CC(=O)N4CC(C)(C)c5c4cc(Cc4ccc(F)cc4)c(=O)n5C)CCO3)C2)CN1 [Example 116, 1,1′-(2,2′-((3R,3′R,6R,6′R)-(((2S,2'S)-((hexa-2,4-diyne-1,6-diylbis(oxy))bis(methylene))bis(morpholine-2,4-diyl))bis(methylene))bis(3-methylpiperazine-6,1-diyl))bis(acetyl))bis(6-(4-fluorobenzyl)-3,3,4-trimethyl-1,2,3,4-tetrahydro-5H-pyrrolo[3,2-b]pyridin-5-one)]
pIC50 (cIAP1-BIR3): 7.50 to 7.80 | cIAP1 BIR3 vs BIR2 separation window (cIAP1-BIR3): +++ (10,000>FS>1,000) | pIC50 (cIAP1-BIR2): 5.00 to 5.50 | pIC50 (XIAP-BIR3): 6.30 to 7.50 | pIC50 (cIAP2-BIR2): 5.00 to 5.50 | pIC50 (cIAP2-BIR3): 7.50 to 7.80 | cIAP2 BIR3 vs BIR2 separation window (cIAP2-BIR3): +++ (10,000>FS>1,000) | EC50 [1]: 316 to 3310 nM
